{"source": "patent US20240390468A1", "about": "“SURVIVIN AND MAGE-A9 DUAL-TARGETED IMMUNOTHERAPY” (IMMUNOVACCINE TECHNOLOGIES INC., priority 2022, published 2024)", "key": {"[1]": {"test_system": "peptide-loaded RMA-S HHD cells", "assay": "Chromium 51 release assay (CTL assay)", "format": "cell-based, mice", "details": "effector:target 75:1, 50:1, 25:1; mice immunized with recombinant MAGE-A9 and poly(I:C)"}, "[2]": {"test_system": "spleen cells", "assay": "Spleen cell studies (omission of peptide 223)", "format": "cell-based"}, "[3]": {"target": "MHC class 1 allele A*02:01 (Homo sapiens, UniProt P04439, D140Y/D185E/D98H/E176V/E277Q/G131W/G231S/I119V/I121R/I166T/I218V/L300P/L318F/N151K/N90K/P208A/P217A/Q86G/Q94H/R138H/R169H/T345S)", "assay": "REVEAL binding of HLA-A2 binding peptides", "details": "Higher REVEAL score"}}}
{"sequence": "ALSVMGVYV [MAGE-A9 223, MAGE-A9 peptide antigen]", "values": [{"measurement": "CTL response (51Cr-release)", "setting": "[1]", "result": "elicited a response"}, {"measurement": "impact of omission on immunogenic potential of a final formulation", "setting": "[2]", "result": "does not significantly impact"}, {"measurement": "binding to MHC class 1 allele A*02:01 (in words)", "setting": "[3]", "result": "high binding"}]}
